Here are results for 4 compounds from patent US4089947A, “Antibiotic compositions containing validamycin compounds” (priority 1976, dated 1978).

In one series the test system is Rhyzoctonia solani. The series can be described thus: Cucumber damping-off control test. The series is classed as in vivo. To be noted: 14 days after sowing. The procedure: Cucumber damping-off control test
Rhyzoctonia solani is cultured on barley medium at 28° C for 5 days. A field soil sample is packed into clay pots 9 cm in diameter, which are then sterilized with steam. The chaff inoculum is evenly worked into the cover soil of each pot to the depth of about 3 cm, at the rate of 2g./pot. The pots are kept in an incubation chamber at 28° C for 4 days and, then, transferred to a greenhouse.
As per Experiment 1, the drug is sprayed onto the soil surface at the rate of 30 ml./6 pots/group.
Healthy seeds of cucumber (variety: Yonyo) are sown by burial in the pots immediately after treatment, at the rate of 10 seeds/pot. The pots are then placed in a greenhouse at 32°-28° C.
14 days after sowing, the results are evaluated against the following coefficients of lesion and the degrees of damage are calculated.
Coefficients of lesion (I)
0.5 : Root hairs alone are slightly affected.
1 : Aerial portions near soil surface and roots affected.
2 : Early stage of damping-off.
3 : Affected at germination; growth inhibited.
Degree of damage (%) =(Σ(nI))/3 × N × 100 wherein n means the number of samples corresponding to each coefficient of lesion and N means the total number of plants.

The subject of another series is Oryzias latipes. The series can be described thus: Acute toxicity for Oryzias latipes (median lethal dose, 48 hours). The class given is in vivo. The following applies: leaving in water solution. The protocol:
(§1) The toxicity of the antibiotics can be confirmed, for instance, by administering each of the validamycins C, D, E and F, and validoxylamines A and B, intravenously to mice and measuring the LD50 value, or by measuring the median lethal dose (48 hours) for Oryzias latipes.

Series [1] deals with Pellicularia sasakii. Briefly: Abnormal branching of hyphal tips of Pellicularia sasakii (agar dilution bioassay). The series is classed as cell-based. To be noted: for highest dilution factor that causes an abnormal branching at the hyphal tips of Pellicularia sasakii: 1 mg./ml. aqueous solution as stock solution; for dilution unit (maximum dilution which produces abnormal branching): aqueous solution containing 1000 γ/ml., 27° C for 40 hours. The protocol: Therefore, the bioassay of the antibiotics should be conducted in the following manner.
Pellicularia sasakii is used as the test organism employing plain agar as the assay medium. The test organism is cultivated on a potato (sucrose) agar slant for 2 to 5 days, and the resulting culture is used to inoculate at the center of a 9-cm Petri dish plate of modified Pfeffer's medium, which is then incubated at 27° C for 2 days. By the end of this period, the mycelium will have spread over the entire surface of the plate. The growth on the circumference about 3 to 3.5 cm in radius from the center is cut out with a cork borer and the agar disc thus obtained is used as the inoculum.
A serial dilution series of agar plants containing varying concentrations of the antibiotics is prepared in the same manner as a conventional agar dilution method.
A glass disc of 8 mm in diameter and about 0.2 mm thick, is placed in the center of each of the aforementioned dilution series of agar plates, and the agar disc inoculum is then placed on the glass disc. After incubation at 27° C for 40 hours, the result is evaluated. […] The term dilution unit means the value of maximum dilution which produces such abnormal branching.
Modified Pfeffer's medium, which is employed in this assay, has the following composition.
Before using the medium, the following vitamins are added in the specified amounts. (Weight per ml. of medium)
When a 1 mg./ml. aqueous solution of each of validamycins C, D, E and F and validoxylamines A and B is used as a stock solution, the highest dilution factor that causes an abnormal branching at the hyphal tips of Pellicularia sasakii is as follows.

The subject of series [2] is Pellicularia sasakii. The series can be described thus: Rice sheath blight control test, preventive (prophylactic). The series is classed as in vivo. The following applies: 10 days after application, untreated 34.4cm. The protocol: (§2) Rice sheath blight control test
(§3) Rice Plants (variety: Kinmaze) are planted in earthen pots 9 cm in diameter, 3 stocks per pot. Seedlings 80 days after potting are tested and 6 pots each of them are grouped.
(§4) Pathogenic fungi Pellicularia sasakii is cultivated on a plate of potato infusion-sugar-agar at 30°C for 48 hours, and its agar disc 10mm in diameter is cut out from a peripheral colony. The disc is inserted into the inside space of the leaf sheath near the soil surface, a disc per stem. The pots are kept in a PVC shelter at the temperature of 32°-25° C and the relative humidity of 100-70%. Inoculation is carried out immediately after the applied drug has been air-dried in the prophylactic test, and 3 days before application in the remedial test.
(§5) 10 days after application of the drug, the length of each stem from ground level to the upper edge of the lesion is directly measured.

Another series deals with Cladosporium fulvum. The series can be described thus: Tomato leaf mold control test. To be noted: 50 ppm; 14 days after inoculation; inoculated 3 days before application. The class given is in vivo. The procedure:
Tomato leaf mold control test
Tomato plants (variety: ponterosa) are planted in 12 cm in diameter pots, one plant per pot. The seedlings 50 days after potting are used, 6 pots/group.
Applied at the rate of 100 ml./6 pots/group as per Experiment 1.
Pathogenic fungi Cladosporium fulvum is cultured on a potato infusion-sucrose plate at 20° C for 14 days, and a suspension of conidia (5×10^5 /ml.) is prepared from the culture.
The plants are spray-inoculated with the suspension 3 days before application of the drug, at the rate of 5 ml. per pot. The pots are kept in an inoculation chamber at 25° C for 24 hours, and, then they are transferred to a greenhouse.
14 days after inoculation, the specific ratio of the average area of lesion in the leaves is measured.

The nature of series [3]: pKa' (neutralization, in aqueous solution). The class given is physicochemical. The text has this:
3. The elementary analysis, the molecular formulas as calculated therefrom, pKa' values, neutralization equivalents (molecular weight) and optical rotation values are given in Table 2.

The subject of another series is bacteria and fungi. Briefly: Antimicrobial potency / growth inhibition in vitro. The class given is cell-based.
Series [4] concerns Pellicularia sasakii. The series can be described thus: Rice sheath blight control test, remedial. The series is classed as in vivo. The following applies: inoculation 3 days before application, untreated 34.4cm. The procedure:
as §2, §3, §4, §5

A further series has as its system useful plants. Briefly: Effect on useful plants (general statement). The class given is in vivo. The following applies: even when applied in a high concentration.
For the next series, the system named is Mice. The series can be described thus: Acute toxicity in mice, intravenous injection. The series is classed as in vivo. The procedure:
as §1

The subject of the next series is plant diseases. Briefly: Control of plant diseases (general statement). The class given is in vivo. The following applies: for controlling effect against plant diseases, for example, the sheath blight of the rice plant: application in vivo; for effectiveness against sheath blight and stem rot of rice plant, damping off and sclerotial blight of vegetables, flowering plants and lumber seedlings: in vivo.

The next series can be described thus: Solubilities. The class given is physicochemical. To be noted: methanol.
Series [5] concerns men and beasts, as well as to fish. Briefly: Harmlessness to men, beasts and fish (general statement). The following applies: in vivo.

Several values for one entry are separate records, joined by “and”; a condition that tells them apart may be missing. Equal entries are not always repeated. Where only a bound is given, the exact number is not on record here.

As for `O=[N+]([O-])c1c(Cl)c(Cl)c(Cl)c(Cl)c1Cl` [Pentachloronitrobenzene, reference compound], the Degree of damage with Rhyzoctonia solani (5 ppm), in the series with Rhyzoctonia solani (20 ppm) and in the series on Rhyzoctonia solani (80 ppm) was 100% throughout.

With `OCC1CC(NC2C=C(COC3OC(CO)C(O)C(O)C3O)C(O)C(O)C2O)C(O)C(O)C1OC1OC(CO)C(O)C(O)C1O` (centres unmarked) [Validamycin C], the TLm in the series on Oryzias latipes is listed as > 1000 ppm. In addition, the “highest dilution factor that causes an abnormal branching at the hyphal tips of Pellicularia sasakii” value in the series with Pellicularia sasakii [1] came out at 100. The “dilution unit (maximum dilution which produces abnormal branching)” value in the series on Pellicularia sasakii [1] turned out to be 100 dilution unit/ml. The “Preventive effect (percent of the average length of lesion/stem per control untreated)” value stood at 46% in the series on Pellicularia sasakii [2] (3 ppm); 34% in the series with Pellicularia sasakii [2] (10 ppm); 4% in the series on Pellicularia sasakii [2] (30 ppm); 1% with Pellicularia sasakii [2] (100 ppm); 0% in the series with Pellicularia sasakii [2] (300 ppm). For the same compound, the “Specific area of lesion” value with Cladosporium fulvum turned out to be 18%. Besides, the “pKa'” value in series [3] stood at 6.0 ± 0.2. The “antimicrobial potency / growth inhibition of bacteria and fungi in vitro” value with bacteria and fungi is reported as “no antimicrobial potency”. Further, the “Remedial effect (percent of the average length of lesion/stem per control untreated)” value in the series with Pellicularia sasakii [4] (3 ppm) is given as 68%; in the series with Pellicularia sasakii [4] (10 ppm) it was 22%; with Pellicularia sasakii [4] (30 ppm), 12%; with Pellicularia sasakii [4] (100 ppm) it was 10%; in the series on Pellicularia sasakii [4] (300 ppm), 7%. Further, the “effect on germination, growth, yield and other features of useful plants” value with useful plants is given as “do not substantially affect”. Also, the LD50 in the series on Mice is > 2000 mg/kg. For the same compound, the Degree of damage stood at 100% in the series with Rhyzoctonia solani (5 ppm), 84% in the series with Rhyzoctonia solani (20 ppm) and 0% with Rhyzoctonia solani (80 ppm). Further, in the series on plant diseases, the “controlling effect against plant diseases, for example, the sheath blight of the rice plant” value is recorded as “excellent controlling effect”. Further, the “effectiveness against sheath blight and stem rot of rice plant, damping off and sclerotial blight of vegetables, flowering plants and lumber seedlings” value in the series with plant diseases is listed as “very effective”. Further, the solubility in methanol result in the series “Solubilities” is given as “more sparingly soluble”. For the same compound, in series [5], the “harmfulness to men and beasts, as well as to fish” value is recorded as “substantially harmless”.

On to `OCC1=C[C@@H](N[C@@H]2C[C@@H](CO[C@@H]3O[C@H](CO)[C@@H](O)[C@H](O)[C@H]3O)[C@H](O)[C@@H](O)[C@H]2O)[C@H](O)[C@H](O)[C@H]1O` [Validamycin D], for which the TLm in the series on Oryzias latipes is > 1000 ppm. Also, the “highest dilution factor that causes an abnormal branching at the hyphal tips of Pellicularia sasakii” value in the series on Pellicularia sasakii [1] turned out to be 10. In the series on Pellicularia sasakii [1], the “dilution unit (maximum dilution which produces abnormal branching)” value is recorded as 10 dilution unit/ml. In addition, the “Preventive effect (percent of the average length of lesion/stem per control untreated)” value turned out to be 28% in the series on Pellicularia sasakii [2] (3 ppm); 5% in the series with Pellicularia sasakii [2] (10 ppm); 1% with Pellicularia sasakii [2] (30 ppm); 0% with Pellicularia sasakii [2] (100 ppm); 0% with Pellicularia sasakii [2] (300 ppm). Also, in the series with Cladosporium fulvum, the “Specific area of lesion” value is 18% and 25%. Moreover, the “pKa'” value in [3] turned out to be 6.0 ± 0.2. In the series on bacteria and fungi, the “antimicrobial potency / growth inhibition of bacteria and fungi in vitro” value is listed as “no antimicrobial potency”. The “Remedial effect (percent of the average length of lesion/stem per control untreated)” value with Pellicularia sasakii [4] (10 ppm) is recorded as 99%; with Pellicularia sasakii [4] (30 ppm), 20%; in the series on Pellicularia sasakii [4] (100 ppm), 11%; in the series on Pellicularia sasakii [4] (300 ppm), 8%. Further, in the series with useful plants, the “effect on germination, growth, yield and other features of useful plants” value is recorded as “do not substantially affect”. The LD50 with Mice is recorded as > 2000 mg/kg. For the same compound, the values for the Degree of damage in the series on Rhyzoctonia solani (5 ppm), in the series on Rhyzoctonia solani (20 ppm) and in the series on Rhyzoctonia solani (80 ppm) were 100%, 93% and 0%, respectively. For the same compound, the “controlling effect against plant diseases, for example, the sheath blight of the rice plant” value with plant diseases is “excellent controlling effect”. Moreover, in the series on plant diseases, the “effectiveness against sheath blight and stem rot of rice plant, damping off and sclerotial blight of vegetables, flowering plants and lumber seedlings” value is “very effective”. Besides, the solubility in methanol entry in “Solubilities” was “soluble”. The “harmfulness to men and beasts, as well as to fish” value in series [5] is listed as “substantially harmless”.

Consider “Methyl arsonic acid ammonium complex salt [MAFA, reference compound]”, for which the “Preventive effect (percent of the average length of lesion/stem per control untreated)” value was 76% in the series on Pellicularia sasakii [2] (3 ppm); 51% in the series with Pellicularia sasakii [2] (10 ppm); 0% with Pellicularia sasakii [2] (30 ppm); 0% with Pellicularia sasakii [2] (100 ppm); 0% with Pellicularia sasakii [2] (300 ppm). In addition, the “Remedial effect (percent of the average length of lesion/stem per control untreated)” value is 89% with Pellicularia sasakii [4] (3 ppm); 30% with Pellicularia sasakii [4] (10 ppm); 15% in the series with Pellicularia sasakii [4] (30 ppm); 13% in the series on Pellicularia sasakii [4] (100 ppm); 10% in the series with Pellicularia sasakii [4] (300 ppm).

One may read the LD50 as the dose expected to kill half of the subjects tested. Low values mean a more toxic substance, high ones a less toxic substance.
